Test system: ATDC5 cells
Test: Chondrogenesis activity assay in ATDC5 cells (collagen type II induction, immunofluorescence)
Format: cell-based, mouse
Conditions: Mus musculus; for EC50: collagen type II induction in ATDC5 cells, concentration reaching 50% of maximum induction; for Emax: maximum percent induction of collagen type II relative to internal reference compound at 10 μM, ATDC5 cells
Outline: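 Collagen type II was stained in fixed, permeabilized cells with an Alexa Fluor 488 secondary and measured by high-content fluorescence imaging. ATDC5 cells had 4 days at 37 °C in insulin-supplemented differentiation medium with compound, typically 40 nM–10 μM, 0.1% DMSO. DMSO wells and a 10 μM internal reference compound were used for normalization.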

Row | Structure (SMILES) | EC50 | Emax
1 | CCc1nccc2c1[nH]c1c(-c3ccc(OC)cc3)cc(Cl)cc12 [Example 153, 6-Chloro-1-ethyl-8-(4-methoxy-phenyl)-9H-pyrido[3,4-b]indole] | 4.5 µM | 50 to 80%
2 | Cc1nccc2c1[nH]c1c(-c3cnc(N)nc3)cc(Cl)cc12 [Example 154, 5-(6-Chloro-1-methyl-9H-pyrido[3,4-b]indol-8-yl)-pyrimidin-2-ylamine] | 8.8 µM | 20 to 50%
3 | COc1ccc(-c2cc(Cl)cc3c2[nH]c2c(C(F)(F)F)nccc23)cc1 [Example 155, 6-Chloro-8-(4-methoxy-phenyl)-1-trifluoromethyl-9H-pyrido[3,4-b]indole] | > 3.3 µM | < 20%
4 | Cc1nccc2c1[nH]c1c(-c3cnc(-n4cccc4)nc3)cc(Cl)cc12 [Example 156, 6-Chloro-1-methyl-8-(2-pyrrol-1-yl-pyrimidin-5-yl)-9H-pyrido[3,4-b]indole] | 1.5 µM | < 20%
5 | CNc1ncc(-c2cc(Cl)cc3c2[nH]c2c(C)nccc23)cn1 [Example 157, [5-(6-Chloro-1-methyl-9H-pyrido[3,4-b]indol-8-yl)-pyrimidin-2-yl]-methyl-amine] | > 10 µM | 20 to 50%
6 | Cc1nccc2c1[nH]c1c(-c3ccc(Cl)c(C#N)c3Cl)cc(Cl)cc12 [Example 158] | 1.9 µM | > 80%
7 | CC(C)n1cc(-c2cc(Cl)cc3c4ccncc4n(CC(F)(F)F)c23)cn1 [Example 160, 6-Chloro-8-(1-isopropyl-1H-pyrazol-4-yl)-9-(2,2,2-trifluoro-ethyl)-9H-pyrido[3,4-b]indole] | > 10 µM | < 20%
8 | CCCn1cc(-c2cc(Cl)cc3c4ccncc4n(CC(F)(F)F)c23)cn1 [Example 161, 6-Chloro-8-(1-propyl-1H-pyrazol-4-yl)-9-(2,2,2-trifluoro-ethyl)-9H-pyrido[3,4-b]indole] | 2 µM | > 80%
9 | Cn1ccc(-c2cc(Cl)cc3c4ccncc4n(CC(F)(F)F)c23)c1 [Example 165, 6-Chloro-8-(1-methyl-1H-pyrrol-3-yl)-9-(2,2,2-trifluoro-ethyl)-9H-pyrido[3,4-b]indole] | > 10 µM | < 20%

Now those with a lower EC50, led by results:

Row | EC50 | Structure (SMILES) | Emax
10 | 0.54 µM | Cc1nccc2c1[nH]c1c(-c3cnn(C)c3)cc(Cl)cc12 [Example 151, 6-Chloro-1-methyl-8-(1-methyl-1H-pyrazol-4-yl)-9H-pyrido[3,4-b]indole] | 50 to 80%
11 | 0.36 µM | COC(=O)c1cc2c([nH]c3c(-c4ccc(OC)cc4)cc(Cl)cc32)c(C)n1 [Example 152, 6-Chloro-8-(4-methoxy-phenyl)-1-methyl-9H-pyrido[3,4-b]indole-3-carboxylic acid methyl ester] | < 20%
12 | 0.59 µM | FC(F)(F)Cn1c2cnccc2c2cc(Cl)cc(-c3cnn(Cc4ccccc4)c3)c21 [Example 162, 8-(1-Benzyl-1H-pyrazol-4-yl)-6-chloro-9-(2,2,2-trifluoro-ethyl)-9H-pyrido[3,4-b]indole] | > 80%
13 | 0.69 µM | CC(=O)OCCn1cc(-c2cc(Cl)cc3c4ccncc4n(CC(F)(F)F)c23)cn1 [Example 163, Acetic acid 2-(4-[6-chloro-9-(2,2,2-trifluoro-ethyl)-9H-pyrido[3,4-b]indol-8-yl]-pyrazol-1-yl)-ethyl ester] | > 80%
14 | 0.23 µM | CCn1c2c(-c3cnn(C)c3)cc(Cl)cc2c2ccnc(C)c21 [Example 164, 6-Chloro-9-ethyl-1-methyl-8-(1-methyl-1H-pyrazol-4-yl)-9H-pyrido[3,4-b]indole] | > 80%
15 | 0.84 µM | FC(F)(F)Cn1c2cnccc2c2cc(Cl)cc(-c3cnn(Cc4cccs4)c3)c21 [Example 166, 6-Chloro-8-(1-thiophen-2-ylmethyl-1H-pyrazol-4-yl)-9-(2,2,2-trifluoro-ethyl)-9H-pyrido[3,4-b]indole] | > 80%
